Source: article PMC6515479, “An Investigation on Glucuronidation Metabolite Identification, Isozyme Contribution, and Species Differences of GL-V9 In Vitro and In Vivo” (Molecules, 2019)

Key:
Assay type in all cases: in vitro ADME
[1] = Enzyme kinetics of GL-V9 glucuronidation in rat liver microsomes (RLMs); settings: rat, liver microsomes, pH 7.4, formation of 5-O-glucuronide GL-V9, protein 0.1 mg/mL, mean ± SD, n = 3
Method: (§1) The composition of the incubation system (200 μL) contained liver microsomes of different species (0.1 mg protein/mL), 5 mM saccharolactone (D-saccharic acid 1,4-lactone monohydrate), 10 mM MgCl2, alamethicin (50 μg/mg protein), Tris-HCl buffer (50 mM, pH 7.4) and GL-V9 (1 μM). After 5 min of preincubation at 37 °C, UDPGA (5 mM) was added to initiate the phase II reaction. Control incubation samples were performed without UDPGA or without substrates (GL-V9). The reaction was terminated by addition of ice-cold methanol (three volumes) after incubation for 1 h at 37 °C. Samples were vortexed, centrifuged at 21,500× g for 10 min and then stored at 4 °C until HPLC-UV-TripleTOF analysis. To confirm that these metabolites are conjugates resulting from glucuronidation reaction, enzymatic hydrolysis of samples was processed. β-glucuronidase (100 KU, Sigma) was added and the hydrolysis was performed overnight at 37 °C. The control samples were carried out without β-glucuronidase under the same condition.
(§2) Enzyme kinetics experiments were carried out in triplicate among five different species, including monkey, beagle dog, rat, mouse, and human. The reaction system and operations are as same as described in Section 4.3. The solutions of GL-V9 were selected over a range of concentrations (0.05, 0.2, 0.5, 1, 2, 5, 10, 20 μM). […]

[2] = tested on: rat liver microsomes (RLMs); assay: as above; settings: formation of 5-O-glucuronide GL-V9, protein 0.1 mg/mL, mean ± SD, n = 3
Method: as §1, §2

[3] = target: T1, rUGT1A9 (Homo sapiens, UniProt O60656); assay: Recombinant enzyme kinetics of GL-V9 glucuronidation, rUGT1A9; settings: formation of 5-O-glucuronide GL-V9; rUGT1A9, protein 0.06 mg/mL, 1 h at 37 °C; mean ± SD, n = 3
T1 construct: purchased Corning (Woburn, MA, USA)
T1 sequence (O60656 26-530): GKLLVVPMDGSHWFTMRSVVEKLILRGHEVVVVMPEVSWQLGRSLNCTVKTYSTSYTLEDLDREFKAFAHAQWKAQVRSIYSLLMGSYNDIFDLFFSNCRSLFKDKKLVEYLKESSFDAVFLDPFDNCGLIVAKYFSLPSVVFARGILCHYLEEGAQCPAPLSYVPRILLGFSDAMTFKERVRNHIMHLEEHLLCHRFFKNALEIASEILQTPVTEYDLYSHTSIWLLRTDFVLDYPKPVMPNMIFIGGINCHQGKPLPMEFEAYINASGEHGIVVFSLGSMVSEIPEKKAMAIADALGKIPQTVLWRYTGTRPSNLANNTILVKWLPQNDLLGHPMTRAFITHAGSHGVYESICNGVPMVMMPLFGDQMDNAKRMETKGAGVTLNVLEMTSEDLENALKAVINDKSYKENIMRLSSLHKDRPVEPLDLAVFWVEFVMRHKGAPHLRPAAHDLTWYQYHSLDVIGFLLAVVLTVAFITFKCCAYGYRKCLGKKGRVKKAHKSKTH

[4] = target: T2, rUGT2B7 (Homo sapiens, UniProt P16662); assay: UGT phenotyping of GL-V9 glucuronidation, rUGT2B7; settings: GL-V9 0.5, 1, 5 μM, 37 °C, 1 h
T2 construct: purchased Corning (Woburn, MA, USA)
T2 sequence (P16662 24-529): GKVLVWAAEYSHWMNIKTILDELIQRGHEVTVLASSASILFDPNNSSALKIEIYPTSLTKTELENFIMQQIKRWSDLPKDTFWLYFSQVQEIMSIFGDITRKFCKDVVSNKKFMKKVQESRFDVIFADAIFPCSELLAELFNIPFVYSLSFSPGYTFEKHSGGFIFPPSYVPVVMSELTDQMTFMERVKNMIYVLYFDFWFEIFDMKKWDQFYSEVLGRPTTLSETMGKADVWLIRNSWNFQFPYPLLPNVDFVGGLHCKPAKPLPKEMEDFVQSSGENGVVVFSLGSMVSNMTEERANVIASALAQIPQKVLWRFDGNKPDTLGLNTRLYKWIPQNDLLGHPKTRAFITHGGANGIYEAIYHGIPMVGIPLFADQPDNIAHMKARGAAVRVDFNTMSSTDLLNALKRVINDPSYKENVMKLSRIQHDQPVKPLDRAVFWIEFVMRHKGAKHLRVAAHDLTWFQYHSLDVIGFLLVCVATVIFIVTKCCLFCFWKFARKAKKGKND
Method: as §1
Twelve human recombinant UGT isoforms (rUGT1A1, rUGT1A3, rUGT1A4, rUGT1A6, rUGT1A7, rUGT1A8, rUGT1A9, rUGT1A10, rUGT2B4, rUGT2B7, rUGT2B15, and rUGT2B17) were employed to identify the main UGT enzyme(s) responsible for glucuronidation of GL-V9 under mixture conditions as described in Section 4.3. […]

COc1c(OCCCCN2CCCC2)cc(O)c2c(=O)cc(-c3ccccc3)oc12 [GL-V9]
Km at 1 h [1]: 6.54 ± 0.33 µM
Vmax [2]: 32.72 ± 1.45 pmol/min/mg
Vmax [3]: 148.1 ± 2.56 pmol/min/mg
Catalytic activity in the production of 5-O-glucuronide GL-V9 [4]: did not show apparent catalytic activity
